Data: patent US20220133722A1, “PHARMACEUTICAL COMPOSITIONS” (QUE ONCOLOGY PTY LTD, priority 2019, published 2022)
Values joined by “and” are separate entries in the source; they are usually repeats but may differ in a detail not shown here. Equal values may be shown once. Read-outs that look alike come from different tables or passages of the source.

Experiment: Part 2 PK study: 200 mg QD versus 100 mg BID for 10 days under fed conditions
Assay type: in vivo, human
Conditions: fed; for AUC: read-out: AUC0-tau; for Tmax: read-out: Tmax; for half-life: read-out: t½ (converted); for concentration at 10 day: read-out: Cmin; for Vd/F: read-out: Vz/F
Method: Part 2 involved analysing the PK parameters obtained following either single (QD) or twice daily (BD) dosing of a compound of formula (Ia) under fed conditions.
Subjects were randomized 1:1 to receive a daily dose of 200 mg administered once daily in the morning (200 mg capsule) or twice daily (100 mg capsules BID) for a total of 10 days. PK blood samples were taken on Day 1 pre-dose and at 0.25, 0.5, 1.0, 1.5, 2, 3, 4, 8, 10, 12 and 16 hours post-dose. On Days 2 to 10, PK blood samples were taken once pre-dose, and on Days 11 to 14, at 24, 36, 48, 60, 72 and 96 hours post-dose.
Subjects selected for participation checked into the clinical unit and were randomized to the dosing regimen receiving their first dose of study drug on the morning of Day 1 followed by PK and safety assessments through the morning of Day 2 (24 hours post-dose). Subjects on a BID regimen received their second dose of study drug approximately 12 hours after the first dose. Subjects remained confined in the clinic for dosing BID or QD through the last dose of study drug on the morning of Day 10. PK samples were collected through 96 hrs post-dose. Subjects were discharged from the clinic following collection of the 72 hr PK sample, returning to the clinic on the morning of Day 14 for the 96 hr sample collection.
For both Parts 1 and 2, samples were processed and analysed as follows. The method extracted Q-122 and the Internal Standard (IS, Q-122 ^13C4) from human plasma using protein precipitation extraction.
The analytes were separated by HPLC on a Phenomenex Synergi Polar-RP column, and the eluates monitored by an API4000 MS/MS detector in positive MRM mode. The extract was then assayed against a calibration curve. The data were acquired and processed by the data acquisition system Analyst® (Sciex) linked directly to the API4000 MS/MS detector and then processed in Watson LIMS™ (Thermo Scientific), where applicable. The method range is from 10.0 to 2500 ng/mL using 50 μL of matrix and has a run time of approximately 3.2 minutes per sample.
Plasma PK parameters for each dosing regimen and dose level were calculated from the concentrations of Q-122 and its major metabolites measured in pre-dose and post-dose plasma samples. For each dose level, descriptive statistics (sample size, arithmetic means, geometric means, standard deviation, % coefficient of variation, minimum, median, and maximum) are presented.
The pharmacokinetic results were processed according to standard non-compartmental analytical procedures. The software used was Phoenix™ WinNonlin® v 6.4 (Pharsight Corporation, USA) and Microsoft® Excel® 2010 (Microsoft Corporation). The following PK parameters were estimated from plasma data.

[1] = 200 mg QD, Day 10, individual subjects
[2] = human, plasma, oral, 100 mg, 100 mg BID, Day 1, individual subjects
[3] = human, plasma, oral, 100 mg, 100 mg BID, Day 1, mean
[4] = human, plasma, oral, 100 mg, 100 mg BID, Day 1, median
[5] = human, plasma, oral, 100 mg, 100 mg BID, Day 10, individual subjects
[6] = human, plasma, oral, 100 mg, 100 mg BID, Day 10, mean
[7] = human, plasma, oral, 100 mg, 100 mg BID, Day 10, median
[8] = human, plasma, oral, 200 mg, 200 mg QD, Day 1, mean
[9] = human, plasma, oral, 200 mg, 200 mg QD, Day 1, median
[10] = human, plasma, oral, 200 mg, 200 mg QD, Day 10, mean
[11] = human, plasma, oral, 200 mg, 200 mg QD, Day 10, median

% AUCexp (200 mg QD, Day 10, max): 10.70%
AUC0-last (200 mg QD, Day 10, max): 14024 ng·h/mL
AUC0-tau (200 mg QD, Day 10, max): 11036 ng·h/mL
AUCinf (200 mg QD, Day 10, max): 15111 ng·h/mL
Accum Index (200 mg QD, Day 10, max): 2.88
CLss/F (200 mg QD, Day 10, max): 63.82 L/h
Cavg (200 mg QD, Day 10, max): 459.84 ng/mL
Cmax (200 mg QD, Day 10, max): 1730.00 ng/mL
Cmin (200 mg QD, Day 10, max): 93.90 ng/mL
Fluct (200 mg QD, Day 10, max): 401.43%
Tlast (200 mg QD, Day 10, max): 96.00 h
t½ (200 mg QD, Day 10, max): 39.04 h
% AUCexp (200 mg QD, Day 10, mean): 4.612%
CLss/F (200 mg QD, Day 10, mean): 27.396 L/h
Cavg (200 mg QD, Day 10, mean): 368.913 ng/mL
Cmin (200 mg QD, Day 10, mean): 73.267 ng/mL
Fluct (200 mg QD, Day 10, mean): 305.929%
Tlast (200 mg QD, Day 10, mean): 70.000 h
% AUCexp (200 mg QD, Day 10, median): 2.85%
Accum Index (200 mg QD, Day 10, median): 1.61
CLss/F (200 mg QD, Day 10, median): 20.35 L/h
Cavg (200 mg QD, Day 10, median): 409.61 ng/mL
Cmin (200 mg QD, Day 10, median): 73.80 ng/mL
Fluct (200 mg QD, Day 10, median): 329.62%
Tlast (200 mg QD, Day 10, median): 66.00 h
% AUCexp (200 mg QD, Day 10, min): 1.77%
AUC0-last (200 mg QD, Day 10, min): 6077 ng·h/mL
AUC0-tau (200 mg QD, Day 10, min): 3134 ng·h/mL
AUCinf (200 mg QD, Day 10, min): 6805 ng·h/mL
Accum Index (200 mg QD, Day 10, min): 1.22
CLss/F (200 mg QD, Day 10, min): 18.12 L/h
Cavg (200 mg QD, Day 10, min): 130.57 ng/mL
Cmax (200 mg QD, Day 10, min): 245.00 ng/mL
Cmin (200 mg QD, Day 10, min): 52.20 ng/mL
Fluct (200 mg QD, Day 10, min): 135.41%
Tlast (200 mg QD, Day 10, min): 48.00 h
t½ (200 mg QD, Day 10, min): 9.63 h
AUC(0-t) [2]: 8170 ng·h/mL
AUC [2]: 2800 ng·h/mL
AUC(0-t) [3]: 6630 ng·h/mL
AUC [3]: 3590 ng·h/mL
Cmax (human, plasma, oral, 100 mg, 100 mg BID, Day 1, mean, read-out: Cmax): 730 ng/mL
Tmax [3]: 2.25 h
half-life [3]: 5.49 h
AUC(0-t) [4]: 6640 ng·h/mL
AUC [4]: 3690 ng·h/mL
Cmax (human, plasma, oral, 100 mg, 100 mg BID, Day 1, median, read-out: Cmax): 809 ng/mL
Tmax [4]: 2 h
half-life [4]: 5.1 h
AUC(0-inf) [5]: 9020 ng·h/mL
AUC(0-t) [5]: 8810 ng·h/mL
AUC [5]: 7000 ng·h/mL
Cmax (human, plasma, oral, 100 mg, 100 mg BID, Day 10, individual subjects, read-out: Cmax): 1300 ng/mL
Tmax [5]: 2 h
AUC(0-inf) [6]: 7270 ng·h/mL
AUC(0-t) [6]: 6950 ng·h/mL
AUC [6]: 5440 ng·h/mL
Cmax (human, plasma, oral, 100 mg, 100 mg BID, Day 10, mean, read-out: Cmax): 1020 ng/mL
concentration at 10 day [6]: 146 ng/mL
Tmax [6]: 1.75 h
Vd/F [6]: 370 L
half-life [6]: 11.8 h
AUC(0-inf) [7]: 7310 ng·h/mL
AUC(0-t) [7]: 7040 ng·h/mL
AUC [7]: 5760 ng·h/mL
Cmax (human, plasma, oral, 100 mg, 100 mg BID, Day 10, median, read-out: Cmax): 1060 ng/mL
Tmax [7]: 2 h
Vd/F [7]: 210 L
half-life [7]: 8.2 h
Tmax (human, plasma, oral, 200 mg, 200 mg QD, Day 1, individual subjects): 3 h
AUC(0-t) [8]: 8060 ng·h/mL
AUC [8]: 8060 ng·h/mL
Cmax (human, plasma, oral, 200 mg, 200 mg QD, Day 1, mean, read-out: Cmax): 1350 ng/mL
Tmax [8]: 3.17 h
half-life [8]: 8.64 h
AUC(0-t) [9]: 7790 ng·h/mL
AUC [9]: 7790 ng·h/mL
Cmax (human, plasma, oral, 200 mg, 200 mg QD, Day 1, median, read-out: Cmax): 1560 ng/mL
Tmax [9]: 3 h
half-life [9]: 7.7 h
Tmax (human, plasma, oral, 200 mg, 200 mg QD, Day 10, individual subjects): 4 h
AUC(0-inf) [10]: 11100 ng·h/mL
AUC(0-t) [10]: 10600 ng·h/mL
AUC [10]: 8850 ng·h/mL
Cmax (human, plasma, oral, 200 mg, 200 mg QD, Day 10, mean, read-out: Cmax): 1270 ng/mL
concentration at 10 day [10]: 73 ng/mL
Tmax [10]: 3.33 h
Vd/F [10]: 881 L
half-life [10]: 20.5 h
AUC(0-inf) [11]: 11400 ng·h/mL
AUC(0-t) [11]: 11100 ng·h/mL
AUC [11]: 9830 ng·h/mL
Cmax (human, plasma, oral, 200 mg, 200 mg QD, Day 10, median, read-out: Cmax): 1440 ng/mL
Tmax [11]: 3.5 h
Vd/F [11]: 490 L
half-life [11]: 17.1 h
Compound: c1cnc(NCc2ccc(CNc3ncccn3)cc2)nc1 [Q-122]
% AUCexp [1]: 2.32% and 3.36% and 2.33% and 7.19% and 10.70% and 1.77%
AUC0-last [1]: 12003 ng·h/mL and 11557 ng·h/mL and 9531 ng·h/mL and 14024 ng·h/mL and 6077 ng·h/mL and 10643 ng·h/mL
AUC0-tau [1]: 10424 ng·h/mL and 9904 ng·h/mL and 8868 ng·h/mL and 11036 ng·h/mL and 3134 ng·h/mL and 9758 ng·h/mL
AUCinf [1]: 12287 ng·h/mL and 11959 ng·h/mL and 9759 ng·h/mL and 15111 ng·h/mL and 6805 ng·h/mL and 10834 ng·h/mL
Accum Index [1]: 1.44 and 1.78 and 1.34 and 2.88 and 2.25 and 1.22
CLss/F [1]: 19.19 L/h and 20.19 L/h and 22.55 L/h and 18.12 L/h and 63.82 L/h and 20.50 L/h
Cavg [1]: 434.33 ng/mL and 412.65 ng/mL and 369.52 ng/mL and 459.84 ng/mL and 130.57 ng/mL and 406.57 ng/mL
Cmax [1]: 1450.00 ng/mL and 1730.00 ng/mL and 1430.00 ng/mL and 1320.00 ng/mL and 245.00 ng/mL and 1470.00 ng/mL
Cmin [1]: 74.10 ng/mL and 73.50 ng/mL and 52.20 ng/mL and 93.90 ng/mL and 68.20 ng/mL and 77.70 ng/mL
Fluct [1]: 316.79% and 401.43% and 372.87% and 266.63% and 135.41% and 342.45%
Tlast [1]: 60.00 h and 72.00 h and 48.00 h (2×) and 96.00 h (2×)
t½ [1]: 13.99 h and 20.21 h and 12.03 h and 39.04 h and 28.35 h and 9.63 h
